Where two headings read alike, the source gives them in different places.
Columns and labels:
[1] = test system: Beet Armyworm (Spodoptera exigua) ("BAW"), second instar larvae; test: Bioassay on beet armyworm (BAW), 128-well diet tray assay; assay type: in vivo; conditions: for pest or weed control at 50 µg/cm2: Spodoptera exigua; for BAW rating: Table ABC, species BAW, C = not tested, D = no activity noticed
Summary of the method: (§1)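 Read-out: percent larval mortality per well, averaged over 8 wells. Incubation 25° C., 14:10 L:D photoperiod, 5–7 days, trays sealed with clear adhesive cover.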

[2] = test system: Cabbage Looper (Trichoplusia ni) ("CL"), second instar larvae; test: Bioassay on cabbage looper (CL), 128-well diet tray assay; assay type: in vivo; conditions: for pest or weed control at 50 µg/cm2: Trichoplusia ni; for CL rating: Table ABC, species CL, C = not tested, D = no activity noticed
Summary of the method: as §1

[3] = read-out: BAW (Biological Results, rating)
[4] = read-out: CL (Biological Results, rating)

SMILES	pest or weed control at 50 µg/cm2 ([1]; read-out: BAW rating) [%]	pest or weed control at 50 µg/cm2 ([2]; read-out: CL rating) [%]	pest or weed control at 50 µg/cm2 [1, 3] [%]	pest or weed control at 50 µg/cm2 [2, 4] [%]	further results
CC(C)c1cc(F)c(N(C)C)cc1N1C(=O)CS/C1=N\C(=O)Nc1ccc(-c2nnc(-c3ccc(OC(F)(F)F)cc3)o2)cc1F [Compound J432, (Z)-1-(3-(5-(Dimethylamino)-4-fluoro-2-isopropylphenyl)-4-oxothiazolidin-2-ylidene)-3-(2-fluoro-4-(5-(4-(trifluoromethoxy)phenyl)-1,3,4-oxadiazol-2-yl)phenyl)urea]	50 to 100	50 to 100			
CCN(CC)c1ccc(C(C)C)c(N2C(=O)CS/C2=N\C(=O)Nc2ccc(-c3ncn(-c4ccc(OC(F)(F)F)cc4)n3)cc2F)c1 [Compound J69, (Z)-1-(3-(5-(diethylamino)-2-isopropylphenyl)-4-oxothiazolidin-2-ylidene)-3-(2-fluoro-4-(1-(4-(trifluoromethoxy)phenyl)-1H-1,2,4-triazol-3-yl)phenyl)urea]			50 to 100	50 to 100	
Cc1ccc(COCC(F)(F)F)c(N2C(=O)CS/C2=N\C(=O)Nc2ccc(-c3ncn(-c4ccc(OC(F)(F)F)cn4)n3)cc2C)c1 [Compound J241, (Z)-1-(3-(5-Methyl-2-((2,2,2-trifluoroethoxy)methyl)phenyl)-4-oxothiazolidin-2-ylidene)-3-(2-methyl-4-(1-(5-(trifluoromethoxy)pyridin-2-yl)-1H-1,2,4-triazol-3-yl)phenyl)urea]			50 to 100	50 to 100	
COc1cc(-c2ncn(-c3ccc(OC(F)(F)F)cc3)n2)ccc1NC(=O)/N=C1\SCC(=O)N1c1cc(N(C)C)ccc1C(C)C [Compound J89, (Z)-1-(3-(5-(Dimethylamino)-2-isopropylphenyl)-4-oxothiazolidin-2-ylidene)-3-(2-methoxy-4-(1-(4-(trifluoromethoxy)phenyl)-1H-1,2,4-triazol-3-yl)phenyl)urea]			50 to 100	50 to 100	
CCOCc1ccc(C)cc1N1C(=O)CS/C1=N\C(=O)Nc1ccc(-c2cn(-c3ccc(OC(F)(F)F)cc3)nn2)cc1 [Compound J493, (Z)-1-(3-(2-(Ethoxymethyl)-5-methylphenyl)-4-oxothiazolidin-2-ylidene)-3-(4-(1-(4-(trifluoromethoxy)phenyl)-1H-1,2,3-triazol-4-yl)phenyl)urea]	50 to 100	50 to 100			
Cc1ccc(COCC(F)(F)F)c(N2C(=O)CS/C2=N\C(=O)Nc2ccc(-c3ncn(-c4ccc(OC(F)(F)F)cn4)n3)cc2Cl)c1 [Compound J249, (Z)-1-(2-Chloro-4-(1-(5-(trifluoromethoxy)pyridin-2-yl)-1H-1,2,4-triazol-3-yl)phenyl)-3-(3-(5-methyl-2-((2,2,2-trifluoroethoxy)methyl)phenyl)-4-oxothiazolidin-2-ylidene)urea]			50 to 100	50 to 100	
Cc1ccc(COCC(F)(F)F)c(N2C(=O)CS/C2=N\C(=O)Nc2ccc(-c3ncn(-c4cccc(OC(F)(F)F)c4)n3)cc2C)c1 [Compound J722]					BAW rating [1]: A (50-100); CL rating [2]: A (50-100)
CC(C)c1ccc(N(C)C)cc1N1C(=O)CS/C1=N\C(=O)Nc1ccc(-c2cn(-c3ccc(C(F)(F)F)cn3)cn2)cc1 [Compound J520, (Z)-1-(3-(5-(Dimethylamino)-2-isopropylphenyl)-4-oxothiazolidin-2-ylidene)-3-(4-(1-(5-(trifluoromethyl)pyridin-2-yl)-1H-imidazol-4-yl)phenyl)urea]	50 to 100	50 to 100			
CCCc1ccc(C)cc1N1C(=O)CS/C1=N\C(=O)Nc1ccc(-c2ncn(-c3ccc(S(F)(F)(F)(F)F)cc3)n2)cc1F [Compound J498]					BAW rating [1]: A (50-100); CL rating [2]: A (50-100)
Cc1ccc(COCCC(F)(F)F)c(N2C(=O)CS/C2=N\C(=O)Nc2ccc(-c3ncn(-c4ccccc4)n3)cc2C)c1 [Compound J781, (Z)-1-(3-(5-Methyl-2-((3,3,3-trifluoropropoxy)methyl)phenyl)-4-oxothiazolidin-2-ylidene)-3-(2-methyl-4-(1-phenyl-1H-1,2,4-triazol-3-yl)phenyl)urea]	50 to 100	50 to 100			

Reference: US20230077362A1 (CORTEVA AGRISCIENCE LLC, priority 2019, published 2023)
